The source of these data is ChEMBL document CHEMBL1221176, “Actin microfilament aggregation induced by withaferin A is mediated by annexin II” (Nat Chem Biol, 2006).

Assay [1] concerns the target Annexin A2 (Homo sapiens) (UniProt P07355). Put plainly: Binding affinity to annexin 2 assessed as inhibition of protein-lipid interaction after 15 mins by coomassine blue staining.
Target sequence in this assay (P07355 whole entry): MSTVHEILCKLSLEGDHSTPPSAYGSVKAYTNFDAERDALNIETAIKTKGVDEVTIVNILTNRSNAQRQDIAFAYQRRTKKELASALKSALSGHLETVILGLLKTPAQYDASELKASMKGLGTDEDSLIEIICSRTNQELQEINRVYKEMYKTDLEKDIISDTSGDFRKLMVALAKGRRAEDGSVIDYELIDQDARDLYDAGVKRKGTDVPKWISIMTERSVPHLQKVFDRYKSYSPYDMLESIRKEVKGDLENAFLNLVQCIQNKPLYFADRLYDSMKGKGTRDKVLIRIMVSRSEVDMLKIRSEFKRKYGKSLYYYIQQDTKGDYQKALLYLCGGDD
The target is the same in assay [2]. Put plainly: Inhibition of annexin 2-mediated liposome aggregation after 15 mins by spectrophotometry.
Target sequence in this assay (P07355 whole entry): as above
Assay [3] shares this target. Put plainly: Induction of annexin-2-mediated cytotoxicity in human CHP100 cells at 4 uM after 2 hrs by MTT assay. Type of assay: cell-based.
Target sequence in this assay (P07355 whole entry): as above
Assay [4] concerns the target Annexin A2 (Bos taurus) (UniProt P04272). Description: Displacement of biotinyl-withaferin from bovine lung annexin-2 at 40 uM by chemiluminescence assay.
For assay [5], the target named is Annexin A2 (Homo sapiens) (UniProt P07355). Description: Induction of annexin-2-mediated cytotoxicity in human MCF10A cells assessed as cell morphology at 4 uM after 2 hrs by scanning electron microscopy. Particulars: MCF-10A.
Target sequence in this assay (P07355 whole entry, looked up): as the sequence (P07355 whole entry) above
In assay [6] the target is Annexin A2 (Bos taurus) (UniProt P04272). Put plainly: Displacement of biotinyl-withaferin from bovine lung annexin-2 at 4 uM by chemiluminescence assay.
For assay [7], the species on record is Homo sapiens. Put plainly: Effect on human F-actin pellet formation after 1 hr by SDS-PAGE.
In assay [8] the test system is WI-38. Put plainly: Cytotoxicity against human WI38 cells assessed as cell viability pretreated after 16 hrs by MTT assay in presence of 0.5 uM cytochalasin B. The format is functional, cell-based.
Assay [9] concerns the target T1, Annexin A4 (Bos taurus) (UniProt P13214).
T1 sequence (whole entry): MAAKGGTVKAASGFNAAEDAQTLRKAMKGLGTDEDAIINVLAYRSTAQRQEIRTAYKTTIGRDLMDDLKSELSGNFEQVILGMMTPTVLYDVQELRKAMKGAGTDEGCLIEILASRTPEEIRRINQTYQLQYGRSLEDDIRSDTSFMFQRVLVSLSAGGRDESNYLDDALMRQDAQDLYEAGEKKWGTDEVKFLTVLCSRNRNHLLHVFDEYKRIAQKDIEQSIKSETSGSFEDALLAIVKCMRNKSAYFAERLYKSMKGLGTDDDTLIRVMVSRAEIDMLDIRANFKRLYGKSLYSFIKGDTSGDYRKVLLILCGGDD
Put plainly: Displacement of biotinyl-withaferin from bovine lung annexin 4 at 10 uM by chemiluminescence assay.

Assay [10] concerns HepG2. Put plainly: Cytotoxicity against human HepG2 cells harboring annexin 2 after 48 hrs by MTT assay. The format is functional, cell-based. (Formazan colour is commonly taken as a measure of viable cells.)
The test system of assay [11] is WI-38. Description: Cytotoxicity against human WI38 cells assessed as cell viability pretreated after 16 hrs by MTT assay in presence of 1 uM cytochalasin B. The format is functional, cell-based.
Assay [12] is filed under the species Homo sapiens. Put plainly: Effect on human F-actin bundling assessed as light scattering after 1 hr by SDS-PAGE.
The target in assay [13] is Annexin A2 (Homo sapiens) (UniProt P07355). Put plainly: Effect on human annexin 2-mediated F-actin bundling assessed as increase in light scattering after 1 hr by SDS-PAGE.
Target sequence in this assay (P07355 whole entry): as the sequence (P07355 whole entry) above
The target in assay [14] is T2, Annexin A6 (Bos taurus) (UniProt P79134).
T2 sequence (whole entry): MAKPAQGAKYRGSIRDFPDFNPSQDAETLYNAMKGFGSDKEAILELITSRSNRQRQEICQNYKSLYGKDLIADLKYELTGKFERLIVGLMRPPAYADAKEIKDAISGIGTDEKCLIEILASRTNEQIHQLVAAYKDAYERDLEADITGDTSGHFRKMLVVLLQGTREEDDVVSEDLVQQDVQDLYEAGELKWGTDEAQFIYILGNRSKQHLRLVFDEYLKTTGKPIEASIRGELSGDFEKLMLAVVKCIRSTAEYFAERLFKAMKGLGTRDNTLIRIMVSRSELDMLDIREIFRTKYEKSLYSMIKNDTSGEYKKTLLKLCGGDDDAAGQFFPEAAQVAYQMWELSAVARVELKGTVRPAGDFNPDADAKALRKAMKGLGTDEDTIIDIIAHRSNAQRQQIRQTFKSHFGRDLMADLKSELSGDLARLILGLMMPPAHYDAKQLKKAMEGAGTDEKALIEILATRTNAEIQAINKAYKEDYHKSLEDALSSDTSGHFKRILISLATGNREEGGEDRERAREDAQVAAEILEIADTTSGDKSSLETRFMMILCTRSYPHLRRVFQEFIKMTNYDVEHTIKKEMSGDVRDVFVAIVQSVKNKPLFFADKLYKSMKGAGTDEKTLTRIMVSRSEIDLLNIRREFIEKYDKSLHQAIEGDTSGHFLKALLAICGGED
Description: Displacement of biotinyl-withaferin from bovine lung annexin 6 at 10 uM by chemiluminescence assay.

Assay [15] concerns the target T3, Annexin A1 (Bos taurus) (UniProt P46193).
T3 sequence (whole entry): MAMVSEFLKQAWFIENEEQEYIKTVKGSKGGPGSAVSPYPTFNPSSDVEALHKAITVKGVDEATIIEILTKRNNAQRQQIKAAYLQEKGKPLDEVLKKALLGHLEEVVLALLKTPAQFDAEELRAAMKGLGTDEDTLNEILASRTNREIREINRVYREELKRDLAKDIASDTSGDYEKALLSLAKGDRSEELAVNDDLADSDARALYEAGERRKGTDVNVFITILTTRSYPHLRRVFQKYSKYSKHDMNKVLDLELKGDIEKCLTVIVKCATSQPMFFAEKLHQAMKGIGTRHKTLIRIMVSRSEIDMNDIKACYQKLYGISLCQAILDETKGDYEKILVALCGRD
Description: Displacement of biotinyl-withaferin from bovine lung annexin 1 at 10 uM by chemiluminescence assay.

Assay [16] concerns PC-3M. Put plainly: Cytotoxicity against human PC3M cells assessed as viable cell after 24 hrs by MTT assay. The format is functional, cell-based.
The target in assay [17] is Annexin A2 (Homo sapiens) (UniProt P07355). Description: Displacement of biotinyl-withaferin from annexin-2 in human CHP100 at 0.4 to 4 uM by chemiluminescence assay.
Target sequence in this assay (P07355 whole entry): as the sequence (P07355 whole entry) above
For assay [18], the target named is Annexin A2 (Bos taurus) (UniProt P04272). Description: Displacement of biotinyl-withaferin from bovine lung annexin 2 at 10 uM by chemiluminescence assay.
The target of assay [19] is Annexin A2 (Homo sapiens) (UniProt P07355). Put plainly: Induction of annexin 2-mediated F-actin disruption in human HepG2 cells at 4 uM after 2 hrs by confocal laser scanning microscopy. Type of assay: cell-based.
Target sequence in this assay (P07355 whole entry): as the sequence (P07355 whole entry) above
Assay [20] has the same target. Description: Induction of annexin 2-mediated cytoskeleton aggregate accumulation in human HepG2 cells at 4 uM after 2 hrs by confocal laser scanning microscopy. The format is cell-based.
In assay [21] the target is Annexin A2 (Bos taurus) (UniProt P04272). Put plainly: Displacement of biotinyl-withaferin from bovine lung annexin-2 at 0.4 uM by chemiluminescence assay.
Assay [22] concerns HepG2. Description: Cytotoxicity against human HepG2 cells harboring annexin 2 assessed as rapid shape change and rounding up at 4 uM after 2 hrs. The format is functional, cell-based.
Assay [23] has as its target Annexin A2 (Homo sapiens) (UniProt P07355). Put plainly: Induction of annexin 2-mediated F-actin disruption in human WI38 cells at 4 uM after 2 hrs by confocal laser scanning microscopy. The format is cell-based. Particulars: WI-38.
The target is the same in assay [24]. Description: Displacement of biotinyl-withaferin from annexin-2 in human MCF10A at 0.4 to 4 uM by chemiluminescence assay.
The target in assay [25] is T4, Annexin A5 (Bos taurus) (UniProt P81287).
T4 sequence (whole entry): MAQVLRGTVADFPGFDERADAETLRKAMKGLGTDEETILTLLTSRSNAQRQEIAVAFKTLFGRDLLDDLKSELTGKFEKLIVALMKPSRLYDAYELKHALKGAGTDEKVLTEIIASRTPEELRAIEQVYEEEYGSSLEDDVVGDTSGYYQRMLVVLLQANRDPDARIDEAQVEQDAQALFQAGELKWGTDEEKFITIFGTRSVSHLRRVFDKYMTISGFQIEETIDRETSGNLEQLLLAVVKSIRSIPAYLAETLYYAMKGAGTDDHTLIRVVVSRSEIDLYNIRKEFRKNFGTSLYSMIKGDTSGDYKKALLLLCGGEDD
Description: Displacement of biotinyl-withaferin from bovine lung annexin 5 at 10 uM by chemiluminescence assay.

In assay [26] the test system is CHP100. Put plainly: Cytotoxicity against human CHP100 cells assessed as viable cell after 24 hrs by MTT assay. The format is functional, cell-based.

Active and inactive are the calls of the source. The calls are words filed in the database; no cut-off is given here.

Annexin A2 (Bos taurus), sequence (P04272 whole entry): as the sequence (P07355 whole entry) above, with A66E, I160V, P223C, D230E, R245K, R309K counted along it

As for `CCN1C(=O)C=CC1=O`, the result in [1] was Active. In [2], the inhibition entry was “Active”.
As for `CC1=C(C)C(=O)O[C@H]([C@](C)(O)[C@H]2CC[C@H]3[C@@H]4C[C@H]5O[C@]56[C@@H](O)C=CC(=O)[C@]6(C)[C@H]4CC[C@]23C)C1`, the outcome in assay [3], in assay [4] and in [5] was inactive.
With `CC1=C(CO)C(=O)O[C@@H]([C@@H](C)[C@H]2CC[C@H]3[C@@H]4C[C@H]5O[C@]56[C@@H](O)C=CC(=O)[C@]6(C)[C@H]4CC[C@]23C)C1`, the outcome in assay [6], in assay [13], in assay [4], in assay [16], in assay [17] and in assay [18] was Active. For the same molecule, the outcome in assay [19], in assay [20], in assay [21], in assay [22], in assay [23] and in assay [24] was Active. Moreover, the result in assay [26] was Active. The result in assay [1], in assay [7], in [8], in assay [9], in assay [11] and in assay [12] was inactive. Moreover, the result in assay [14], in assay [15], in [25] and in assay [5] was inactive. Moreover, in [10], the Activity entry is “Toxic”. Also, in assay [2], the inhibition entry is “inactive”.
